Laboratory results published in patent publication US20210276987A1, “PHARMACEUTICAL AGENTS FOR USE IN SMOKING AND TOBACCO CESSATION” (Washington State University, priority 2018, published 2021).
Counter-ions that a name gives are not always drawn. Like-named read-outs stand apart in the source and are kept apart here.

Legend:
[1] = target: T1, UGT2B10 (Homo sapiens, UniProt P36537); experiment: biochemical
T1 sequence (P36537 24-528): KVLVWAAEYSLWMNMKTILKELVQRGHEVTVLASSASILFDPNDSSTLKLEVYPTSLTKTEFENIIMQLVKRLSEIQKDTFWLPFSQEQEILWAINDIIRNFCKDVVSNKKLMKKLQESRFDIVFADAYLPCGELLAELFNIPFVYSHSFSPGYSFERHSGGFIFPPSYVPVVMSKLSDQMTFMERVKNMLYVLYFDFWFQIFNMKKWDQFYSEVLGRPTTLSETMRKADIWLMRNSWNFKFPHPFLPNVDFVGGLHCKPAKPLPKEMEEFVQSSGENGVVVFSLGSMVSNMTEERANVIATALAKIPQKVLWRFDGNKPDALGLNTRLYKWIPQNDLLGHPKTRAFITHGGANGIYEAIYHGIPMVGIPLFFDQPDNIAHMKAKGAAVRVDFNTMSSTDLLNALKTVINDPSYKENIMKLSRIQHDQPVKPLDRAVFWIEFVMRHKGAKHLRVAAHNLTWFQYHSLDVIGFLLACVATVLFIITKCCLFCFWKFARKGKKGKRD
Procedure: Initial screening assays were performed as described above for the CYP assays using 1 μM or 10 μM of each of the NAs. The inhibitory effects of each agent against UGT2B10 was performed using the known UGT2B10-specific probe substrate, nicotine, in pooled human liver microsomes. […] Pre-incubations containing 500 μM nicotine and 1 or 10 μM NA were subsequently performed at 37° C. in 50 mM Tris-HCl buffer (pH 7.5, in a final volume of 50 μL) and 10 mM MgCl2 for 5 minutes.

[2] = target: T2, CYP2A6 (Homo sapiens, UniProt P11509); experiment: biochemical
T2 sequence (P11509 1-494): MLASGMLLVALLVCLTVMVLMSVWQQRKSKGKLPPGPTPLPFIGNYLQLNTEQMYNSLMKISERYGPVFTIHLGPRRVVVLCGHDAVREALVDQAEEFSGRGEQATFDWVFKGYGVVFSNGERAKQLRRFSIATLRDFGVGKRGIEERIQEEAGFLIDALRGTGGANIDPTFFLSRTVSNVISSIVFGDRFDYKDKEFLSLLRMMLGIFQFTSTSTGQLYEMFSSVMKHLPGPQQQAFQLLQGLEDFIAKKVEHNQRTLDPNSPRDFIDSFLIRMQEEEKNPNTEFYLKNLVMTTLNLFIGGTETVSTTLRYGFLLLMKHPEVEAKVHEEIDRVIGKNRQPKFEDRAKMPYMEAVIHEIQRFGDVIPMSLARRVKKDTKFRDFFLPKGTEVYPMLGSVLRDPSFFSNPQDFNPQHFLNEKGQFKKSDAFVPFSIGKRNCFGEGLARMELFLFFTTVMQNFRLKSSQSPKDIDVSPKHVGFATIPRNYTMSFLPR

[3] = in vitro; settings: for half-life at 10 μM: human, microsomes; for T1/2 (min) in human liver microsomes / half-life (T1/2) in human liver microsomes: pH 7.4
Procedure: In vitro stability studies. […] Half-lives were calculated using the one-phase exponential decay equation (GraphPad).

[4] = target: T3, CYP2B6 (Homo sapiens, UniProt P20813)
T3 sequence (P20813 1-491): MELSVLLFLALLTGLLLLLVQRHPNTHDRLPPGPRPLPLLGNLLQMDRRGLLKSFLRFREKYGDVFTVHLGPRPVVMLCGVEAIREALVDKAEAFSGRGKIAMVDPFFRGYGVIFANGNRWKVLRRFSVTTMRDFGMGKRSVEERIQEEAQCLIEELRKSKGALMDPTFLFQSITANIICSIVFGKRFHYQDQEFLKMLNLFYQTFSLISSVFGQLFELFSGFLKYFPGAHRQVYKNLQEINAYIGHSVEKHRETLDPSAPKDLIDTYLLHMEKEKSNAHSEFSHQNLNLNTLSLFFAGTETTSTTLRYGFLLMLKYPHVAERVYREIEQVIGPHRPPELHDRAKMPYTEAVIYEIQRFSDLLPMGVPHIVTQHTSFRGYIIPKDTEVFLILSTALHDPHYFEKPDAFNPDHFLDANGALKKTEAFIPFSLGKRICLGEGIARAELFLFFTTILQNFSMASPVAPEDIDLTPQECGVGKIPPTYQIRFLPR

[5] = target: T4, CYP2C8 (Homo sapiens, UniProt P10632)
T4 sequence (P10632 1-490): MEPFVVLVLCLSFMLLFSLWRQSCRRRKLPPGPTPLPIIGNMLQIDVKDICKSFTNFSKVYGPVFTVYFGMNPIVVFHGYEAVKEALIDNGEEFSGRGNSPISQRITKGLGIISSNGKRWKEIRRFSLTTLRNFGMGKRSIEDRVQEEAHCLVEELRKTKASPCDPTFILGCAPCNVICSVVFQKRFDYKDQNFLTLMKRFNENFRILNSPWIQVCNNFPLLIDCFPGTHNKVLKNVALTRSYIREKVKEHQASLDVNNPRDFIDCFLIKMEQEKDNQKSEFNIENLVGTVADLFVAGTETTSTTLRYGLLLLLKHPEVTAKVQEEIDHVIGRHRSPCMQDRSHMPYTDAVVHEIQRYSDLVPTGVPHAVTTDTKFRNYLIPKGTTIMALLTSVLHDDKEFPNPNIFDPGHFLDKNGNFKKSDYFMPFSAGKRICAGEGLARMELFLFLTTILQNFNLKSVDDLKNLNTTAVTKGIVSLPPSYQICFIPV

[6] = target: CYP2E1 (Homo sapiens, UniProt P05181)
CYP2E1, sequence (P05181 whole entry): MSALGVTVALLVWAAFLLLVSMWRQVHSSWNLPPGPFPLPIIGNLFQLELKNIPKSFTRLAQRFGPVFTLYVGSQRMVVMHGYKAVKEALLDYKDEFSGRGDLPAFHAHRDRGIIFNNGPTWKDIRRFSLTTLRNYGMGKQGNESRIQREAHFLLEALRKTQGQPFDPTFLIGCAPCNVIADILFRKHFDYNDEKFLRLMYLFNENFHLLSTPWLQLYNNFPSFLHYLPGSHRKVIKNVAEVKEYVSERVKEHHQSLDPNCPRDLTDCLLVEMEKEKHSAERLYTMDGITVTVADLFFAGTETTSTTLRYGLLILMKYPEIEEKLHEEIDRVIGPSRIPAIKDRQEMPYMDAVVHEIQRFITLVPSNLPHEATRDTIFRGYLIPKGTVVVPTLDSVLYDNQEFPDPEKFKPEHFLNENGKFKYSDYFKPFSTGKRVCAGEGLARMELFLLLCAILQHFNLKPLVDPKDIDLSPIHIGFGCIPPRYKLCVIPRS

[7] = target: CYP2C9 (Homo sapiens, UniProt P11712); experiment: CYP2C9 inhibition assay, human liver microsomes, diclofenac probe (cocktail)
CYP2C9, sequence (P11712 whole entry): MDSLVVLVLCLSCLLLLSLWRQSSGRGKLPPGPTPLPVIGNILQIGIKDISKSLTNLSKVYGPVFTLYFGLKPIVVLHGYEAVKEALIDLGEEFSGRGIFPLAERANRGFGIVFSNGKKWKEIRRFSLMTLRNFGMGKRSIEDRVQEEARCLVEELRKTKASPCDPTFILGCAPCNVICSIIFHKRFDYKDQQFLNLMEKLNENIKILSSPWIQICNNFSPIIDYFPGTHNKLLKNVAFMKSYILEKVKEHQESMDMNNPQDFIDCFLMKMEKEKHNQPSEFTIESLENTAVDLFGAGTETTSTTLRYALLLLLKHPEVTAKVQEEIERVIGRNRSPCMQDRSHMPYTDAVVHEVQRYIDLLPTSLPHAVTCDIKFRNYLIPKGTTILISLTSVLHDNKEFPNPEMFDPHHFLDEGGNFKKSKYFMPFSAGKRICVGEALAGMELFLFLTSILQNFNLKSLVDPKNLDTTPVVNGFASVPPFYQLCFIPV

[8] = target: T5, CYP1A2 (Homo sapiens, UniProt P05177); experiment: CYP1A2 inhibition assay, human liver microsomes, phenacetin probe (cocktail); settings: Table 8, thiophene and furan analogues
T5 sequence (P05177 1-516): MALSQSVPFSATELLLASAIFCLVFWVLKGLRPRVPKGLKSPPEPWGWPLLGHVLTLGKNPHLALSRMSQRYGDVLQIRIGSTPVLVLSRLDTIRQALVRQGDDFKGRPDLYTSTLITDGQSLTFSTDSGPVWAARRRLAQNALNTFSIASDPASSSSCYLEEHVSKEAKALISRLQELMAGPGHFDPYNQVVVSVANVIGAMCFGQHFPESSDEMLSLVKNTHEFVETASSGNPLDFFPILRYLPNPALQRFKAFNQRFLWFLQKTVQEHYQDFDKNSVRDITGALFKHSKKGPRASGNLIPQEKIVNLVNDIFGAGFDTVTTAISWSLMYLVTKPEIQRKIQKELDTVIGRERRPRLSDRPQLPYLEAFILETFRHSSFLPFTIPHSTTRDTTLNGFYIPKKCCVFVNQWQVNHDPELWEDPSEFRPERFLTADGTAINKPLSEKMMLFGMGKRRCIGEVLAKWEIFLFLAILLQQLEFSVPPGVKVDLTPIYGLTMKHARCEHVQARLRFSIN

[9] = target: CYP2C19 (Homo sapiens, UniProt P33261); experiment: CYP2C19 inhibition assay, human liver microsomes, omeprazole probe (cocktail)
CYP2C19, sequence (P33261 whole entry): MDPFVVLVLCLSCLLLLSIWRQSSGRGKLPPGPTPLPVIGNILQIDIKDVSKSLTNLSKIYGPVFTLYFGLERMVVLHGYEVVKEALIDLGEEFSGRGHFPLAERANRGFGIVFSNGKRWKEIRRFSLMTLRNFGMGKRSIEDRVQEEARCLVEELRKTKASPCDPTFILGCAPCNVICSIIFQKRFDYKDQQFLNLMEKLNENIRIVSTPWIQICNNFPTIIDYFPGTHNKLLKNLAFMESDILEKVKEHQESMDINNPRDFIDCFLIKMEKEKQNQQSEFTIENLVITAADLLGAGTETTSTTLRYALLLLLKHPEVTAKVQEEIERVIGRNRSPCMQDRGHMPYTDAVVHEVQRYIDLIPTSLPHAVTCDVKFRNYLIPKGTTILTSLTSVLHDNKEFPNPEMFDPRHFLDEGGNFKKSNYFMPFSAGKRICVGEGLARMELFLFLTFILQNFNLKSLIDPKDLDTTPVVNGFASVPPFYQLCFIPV

[10] = target: CYP2D6 (Homo sapiens, UniProt P10635); experiment: CYP2D6 inhibition assay, human liver microsomes, dextromethorphan probe (cocktail)
CYP2D6, sequence (P10635 whole entry): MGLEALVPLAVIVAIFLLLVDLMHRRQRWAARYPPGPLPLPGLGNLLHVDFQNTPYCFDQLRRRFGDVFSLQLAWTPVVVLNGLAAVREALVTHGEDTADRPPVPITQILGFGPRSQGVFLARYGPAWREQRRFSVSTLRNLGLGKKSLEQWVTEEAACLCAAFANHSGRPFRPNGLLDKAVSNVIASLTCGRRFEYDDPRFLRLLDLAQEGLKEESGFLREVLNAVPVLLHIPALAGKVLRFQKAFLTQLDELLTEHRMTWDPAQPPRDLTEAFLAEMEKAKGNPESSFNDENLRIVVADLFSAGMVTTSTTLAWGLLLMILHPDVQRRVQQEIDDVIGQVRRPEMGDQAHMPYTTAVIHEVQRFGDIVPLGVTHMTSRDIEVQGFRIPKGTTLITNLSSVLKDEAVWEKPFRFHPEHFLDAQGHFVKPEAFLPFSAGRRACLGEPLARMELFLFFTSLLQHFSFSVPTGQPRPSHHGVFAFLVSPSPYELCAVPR

[11] = target: T2, CYP2A6; settings: for IC50: both, human, microsomes, pH 7.4
[12] = target: T2, CYP2A6; experiment: in vitro; settings: both, microsomes, pH 7.4, IC50 against CYP2A6 (μM)
[13] = target: T5, CYP1A2; settings: both, microsomes, pH 7.4
[14] = tested on: CYPs 1A2, 2B6, 2C8, 2C9, 2C19, 2D6, 2E1 and 3A4
[15] = IC50 against UGT2B10 (μM), Table 9, pooled human liver microsomes, nicotine 500 μM
[16] = IC50 against CYP2A6 (μM), Table 5, alkyne linker agents, pooled human liver microsomes, coumarin […]
[17] = pH 7.4, T1/2 (min) in human liver microsomes
[18] = pH 7.4, half-life (T1/2) in human liver microsomes
[19] = Table 8, thiophene and furan analogues
[20] = IC50 against CYP2A6, human liver microsomes

For `NCC#Cc1cncc2ccccc12` [Compound A, 3-(isoquinolin-4-yl)prop-2-yn-1-amine Dihydrochloride], the IC50 [1, 15] was 770 µM and the IC50 [2, 16] was over 10 µM.
For `NCc1ccc(-c2cnccc2Cl)s1` [Compound AB, (5-(4-chloropyridin-3-yl)thiophene-2-yl)methanamine Dihydrochloride], the half-life at 10 μM [3, 17] was 11 min, the half-life at 10 μM [3, 18] was under 25 min and the “IC50 ratio CYP2B6/CYP2A6” value [4, 19] was 7.4. For the same molecule, the “IC50 ratio CYP2C8/CYP2A6” value [5, 19] was 227, the “IC50 ratio CYP2E1/CYP2A6” value [6, 19] was 47 and the IC50 ([2]; IC50 against CYP2A6 (μM), Table 7, thiophene and furan nicotine analogues, pooled human liver microsomes, coumarin) was 0.11 µM. The “IC50 ratio CYP2C9/CYP2A6” value [7, 19] was 182, the “IC50 ratio CYP1A2/CYP2A6” value [8] was 17 and the “IC50 ratio CYP2C19/CYP2A6” value [9, 19] was 6.8. The “IC50 ratio CYP2D6/CYP2A6” value [10, 19] was 71.
For `NCc1ccc(-c2cnccc2-c2cccnc2)o1` [Compound AG, (5-([3,4′-Bipyridin]-3′-yl)furan-2-yl)methanamine Trihydrochloride], the “T1/2 (min) in human liver microsomes” value ([3]; 10 μM) was over 120 min, the half-life at 10 μM [3, 18] was over 90 min and the IC50 [11] was 0.38 µM.
In the case of `NCc1ccc(-c2cnccc2-c2ccncc2)s1` [Compound AJ, (5-([4,4′-Bipyridin]-3′-yl)thiophene-2-yl)methanamine Trihydrochloride], the “T1/2 (min) in human liver microsomes” value ([3]; 10 μM) is reported as 32 min and the IC50 [11] is reported as 0.33 µM.
In the case of `NCc1ccc(-c2cnccc2-c2cncnc2)o1` [Compound AK, (5-(4-(Pyrimidin-5-yl)pyridin-3-yl)furan-2-yl)methanamine Trihydrochloride], the “T1/2 (min) in human liver microsomes” value ([3]; 10 μM) is reported as over 120 min, the half-life at 10 μM [3, 18] is reported as over 90 min and the IC50 [11] is reported as 1.3 µM.
With `NCc1ccc(-c2cnccc2-c2cncnc2)s1` [Compound AL, (5-(4-(Pyrimidin-5-yl)pyridin-3-yl)thiophene-2-yl)methanamine Trihydrochloride] the “T1/2 (min) in human liver microsomes” value ([3]; 10 μM) was over 120 min, the half-life at 10 μM [3, 18] was over 90 min and the IC50 [11] was 1.2 µM.
`NCC#Cc1cnc2ccccc2c1` [Compound B, 3-(quinolin-3-yl)prop-2-yn-1-amine] showed an IC50 [1, 15] of over 1000 µM, an IC50 ([1]; IC50 against UGT2B10, little to no inhibition) of over 1000 µM and an IC50 [2, 16] of over 10 µM.
For `Cc1ccncc1C#CCN` [Compound C, 3-(4-methylpyridin-3-yl)prop-2-yn-1-amine], the IC50 ([1]; IC50 against UGT2B10) was under 60 µM, the IC50 ([1]; IC50 against UGT2B10 (μM)) was 58 µM and the “T1/2 (min) in human liver microsomes” value [3] was 8.4 min. The “half-life (T1/2) in human liver microsomes” value [3] was “less than 25 minutes”, the IC50 [11] was 0.055 µM and the IC50 ([2]; IC50 against CYP2A6) was under 1 µM.
In the case of `Cc1cncc(C#CCN)c1` [Compound D, 3-(5-methylpyridin-3-yl)prop-2-yn-1-amine], the IC50 ([1]; IC50 against UGT2B10) is reported as over 1000 µM, the IC50 ([1]; IC50 against UGT2B10 (μM)) is reported as over 1000 µM and the IC50 [12] is reported as 10 µM.
In the case of `Cc1ncccc1C#CCN` [Compound F, 3-(2-methylpyridin-3-yl)prop-2-yn-1-amine], the IC50 [1, 15] is reported as 286 µM and the IC50 [2, 16] is reported as over 10 µM.
In the case of `CCc1ccncc1C#CCN` [Compound H, 3-(4-ethylpyridin-3-yl)prop-2-yn-1-amine], the IC50 ([1]; IC50 against UGT2B10) is reported as over 1000 µM, the IC50 ([1]; IC50 against UGT2B10 (μM)) is reported as over 1000 µM and the “T1/2 (min) in human liver microsomes” value [3] is reported as 9.8 min. The “half-life (T1/2) in human liver microsomes” value [3] was “less than 25 minutes”, the IC50 [11] was 0.83 µM and the IC50 ([2]; IC50 against CYP2A6) was under 1 µM.
With `NCC#Cc1cnccc1Cl` [Compound L, 3-(4-chloropyridin-3-yl)prop-2-yn-1-amine Dihydrochloride] the half-life at 10 μM [3, 17] was 28 min, the “IC50 fold lower than that observed for the reference agent” value ([11]; CYP2A6) was 1.2 fold and the “IC50 ratio CYP1A2/CYP2A6” value [13] was 33. For the same molecule, the “IC50 ratio CYP2B6/CYP2A6” value ([4]; Table 6) was 24, the “IC50 ratio CYP2C8/CYP2A6” value ([5]; Table 6) was over 192 and the “IC50 ratio CYP2E1/CYP2A6” value ([6]; Table 6) was 10. The “IC50 ratio CYPhepatic/CYP2A6 against all hepatic CYP enzymes tested” value [14] was over 25, the IC50 [2, 16] was 0.13 µM and the IC50 [2, 20] was under 1 µM. The “IC50 ratio CYP2C9/CYP2A6” value ([7]; Table 6) was over 385, the “IC50 ratio CYP2C19/CYP2A6” value ([9]; Table 6) was 61 and the “IC50 ratio CYP2D6/CYP2A6” value ([10]; Table 6) was 29.
`NCC#Cc1cnccc1-c1ccco1` [Compound M, 3-(4-Furan-2-yl-pyridin-3-yl)-prop-2-ynylamine Dihydrochloride] showed an IC50 [11] of 0.56 µM and an IC50 [2, 20] of under 1 µM.
In the case of `NCC#Cc1cnccc1-c1ccncc1` [Compound P, 3-([4,4′-Bipyridin]-3′-yl)prop-2-yn-1-amine Trihydrochloride], the “T1/2 (min) in human liver microsomes” value ([3]; 10 μM) is reported as 36 min, the IC50 [11] is reported as 3.6 µM and the IC50 [2, 20] is reported as under 10 µM.
With `NCC#Cc1cnccc1-c1cncnc1` [Compound Q, 3-(4-(Pyrimidin-5-yl)pyridin-3-yl)prop-2-yn-1-amine Trihydrochloride] the “T1/2 (min) in human liver microsomes” value ([3]; 10 μM) was over 120 min, the half-life at 10 μM [3, 18] was over 90 min and the IC50 [11] was 2.7 µM. The IC50 [2, 20] was under 10 µM.
